From patent US12459932B2, “KIF18A inhibitors” (AMGEN INC., priority 2018, dated 2025)

Biological target: T1, Recombinant human KIF18A (1-467 His-tagged) (Homo sapiens, UniProt Q8NI77)
T1 construct: Recombinant human KIF18A (1-467 His-tagged) protein; His
Assay: KIF18A Enzyme Assay: microtubule-stimulated ATPase activity (ADP-Glo)
Assay type: biochemical
Conditions: 30 nM KIF18A, 30 μg/mL pig microtubules, ATP 75 μM (Km), ADP-Glo luminescence
How it was run: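 Measures microtubule-stimulated ATPase activity as ADP formed, detected by luminescence. Compounds were tested as 2-fold serial dilutions over 22 points. IC50 values came from four-parameter logistic fits.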

T1 sequence (Q8NI77 1-467): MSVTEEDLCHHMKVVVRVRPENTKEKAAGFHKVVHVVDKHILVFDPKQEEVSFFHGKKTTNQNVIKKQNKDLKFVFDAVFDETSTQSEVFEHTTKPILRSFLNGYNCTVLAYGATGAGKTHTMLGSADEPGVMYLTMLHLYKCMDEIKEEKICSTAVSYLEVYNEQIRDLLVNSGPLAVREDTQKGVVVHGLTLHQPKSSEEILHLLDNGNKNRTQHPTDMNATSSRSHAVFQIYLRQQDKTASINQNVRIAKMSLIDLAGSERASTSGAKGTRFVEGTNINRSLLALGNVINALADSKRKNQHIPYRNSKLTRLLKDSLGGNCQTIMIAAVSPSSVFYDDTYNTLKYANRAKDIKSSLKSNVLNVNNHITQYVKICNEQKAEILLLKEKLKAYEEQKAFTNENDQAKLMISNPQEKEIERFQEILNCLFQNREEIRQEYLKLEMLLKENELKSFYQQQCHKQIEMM
T1 sequence (P02550 whole entry partner): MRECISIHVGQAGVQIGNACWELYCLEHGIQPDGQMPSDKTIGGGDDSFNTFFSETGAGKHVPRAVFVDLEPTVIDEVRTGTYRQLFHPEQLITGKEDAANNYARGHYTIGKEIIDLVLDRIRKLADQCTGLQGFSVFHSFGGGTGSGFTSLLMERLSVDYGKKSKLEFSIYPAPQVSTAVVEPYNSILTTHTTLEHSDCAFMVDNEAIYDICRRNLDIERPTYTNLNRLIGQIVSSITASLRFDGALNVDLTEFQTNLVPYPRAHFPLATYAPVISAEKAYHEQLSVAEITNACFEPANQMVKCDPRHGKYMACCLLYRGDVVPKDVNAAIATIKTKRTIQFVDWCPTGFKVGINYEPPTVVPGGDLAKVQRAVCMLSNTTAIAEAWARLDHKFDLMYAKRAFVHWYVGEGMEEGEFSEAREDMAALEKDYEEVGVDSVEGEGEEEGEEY
T1 sequence (P02554 whole entry partner): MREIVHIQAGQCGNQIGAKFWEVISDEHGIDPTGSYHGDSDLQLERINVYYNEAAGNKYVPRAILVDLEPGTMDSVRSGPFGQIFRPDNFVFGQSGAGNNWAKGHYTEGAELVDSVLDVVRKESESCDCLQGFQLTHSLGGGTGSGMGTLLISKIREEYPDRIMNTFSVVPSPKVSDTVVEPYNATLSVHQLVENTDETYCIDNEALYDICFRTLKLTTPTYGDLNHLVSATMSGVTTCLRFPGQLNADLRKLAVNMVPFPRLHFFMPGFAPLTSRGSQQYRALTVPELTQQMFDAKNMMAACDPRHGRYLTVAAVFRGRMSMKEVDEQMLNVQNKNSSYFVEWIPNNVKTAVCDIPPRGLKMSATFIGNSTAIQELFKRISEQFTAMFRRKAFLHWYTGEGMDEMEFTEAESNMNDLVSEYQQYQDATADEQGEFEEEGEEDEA

SMILES | IC50 [nM]
CS(=O)(=O)c1ccc(C(=O)Nc2cccc(C3CC3)n2)c(N2CCC3(CC2)CC3)c1 [Example 4-4, N-(6-Cyclopropylpyridin-2-yl)-4-(methylsulfonyl)-2-(6-azaspiro[2.5]octan-6-yl)benzamide] | 180
CC(C)c1cccc(NC(=O)c2ccc(S(C)(=O)=O)cc2N2CCC3(CC2)CC3)n1 [Example 4-5, N-(6-Isopropylpyridin-2-yl)-4-(methylsulfonyl)-2-(6-azaspiro[2.5]octan-6-yl)benzamide] | 179
CC(C)(C)c1cccc(NC(=O)c2ccc(S(C)(=O)=O)cc2N2CCC3(CC2)CC3)n1 [Example 4-6, N-(6-(tert-Butyl)pyridin-2-yl)-4-(methylsulfonyl)-2-(6-azaspiro[2.5]octan-6-yl)benzamide] | 166
CC(C)(O)c1cccc(NC(=O)c2ccc(S(C)(=O)=O)cc2N2CCC3(CC2)CC3)n1 [Example 4-7, N-(6-(2-Hydroxypropan-2-yl)pyridin-2-yl)-4-(methylsulfonyl)-2-(6-azaspiro[2.5]octan-6-yl)benzamide] | 315
CC(C)(C)NS(=O)(=O)c1cccc(NC(=O)c2ccc(S(C)(=O)=O)cc2N2CCC3(CC2)CC3)n1 [Example 4-8, N-(6-(N-(tert-Butyl)sulfamoyl)pyridin-2-yl)-4-(methylsulfonyl)-2-(6-azaspiro[2.5]octan-6-yl)benzamide] | 76
CC1(S(=O)(=O)Nc2ccc(C(=O)Nc3cccc(N4CCC(F)(F)CC4)n3)c(N3CCC4(CC3)CC4)c2)CC1 [Example 4-9, N-(6-(4,4-Difluoropiperidin-1-yl)pyridin-2-yl)-4-((1-methylcyclopropane)-1-sulfonamido)-2-(6-azaspiro[2.5]octan-6-yl)benzamide] | 46
Cc1cc(NC(=O)c2ccc(NS(=O)(=O)C3(C)CC3)cc2N2CCC3(CC2)CC3)nc(N2CCC(F)(F)CC2)c1 [Example 4-10, N-(6-(4,4-Difluoropiperidin-1-yl)-4-methylpyridin-2-yl)-4-((1-methylcyclopropane)-1-sulfonamido)-2-(6-azaspiro[2.5]octan-6-yl)benzamide] | 95
C[C@@H]1CN(c2cccc(NC(=O)c3ccc(S(=O)(=O)NC4(C)COC4)cc3N3CCC4(CC3)CC4)n2)CCO1 [Example 4-11, (R)-N-(6-(2-Methylmorpholino)pyridin-2-yl)-4-(N-(3-methyloxetan-3-yl)sulfamoyl)-2-(6-azaspiro[2.5]octan-6-yl)benzamide] | 43
CS(=O)(=O)c1ccc(C(=O)Nc2cccc(N3CCOCC3)n2)c(N2CCC3(CC2)CC3)c1 [Example 4-12, 4-(Methylsulfonyl)-N-(6-morpholinopyridin-2-yl)-2-(6-azaspiro[2.5]octan-6-yl)benzamide] | 118
C[C@@H]1CN(c2cccc(NC(=O)c3ccc(S(C)(=O)=O)cc3N3CCC4(CC3)CC4)n2)CCO1 [Example 4-13, (R)-N-(6-(2-Methylmorpholino)pyridin-2-yl)-4-(methylsulfonyl)-2-(6-azaspiro[2.5]octan-6-yl)benzamide] | 69
C[C@@H]1CN(c2cccc(NC(=O)c3ccc(NS(=O)(=O)C4(C)CC4)cc3N3CCC4(CC3)CC4)n2)CCO1 [Example 4-14, (R)-4-((1-Methylcyclopropane)-1-sulfonamido)-N-(6-(2-methylmorpholino)pyridin-2-yl)-2-(6-azaspiro[2.5]octan-6-yl)benzamide] | 66
C[C@@H]1CN(c2cccc(NC(=O)c3ccc(CS(C)(=O)=O)cc3N3CCC4(CC3)CC4)n2)CCO1 [Example 4-15, (R)-N-(6-(2-Methylmorpholino)pyridin-2-yl)-4-((methylsulfonyl)methyl)-2-(6-azaspiro[2.5]octan-6-yl)benzamide] | 85
Cc1cc(NC(=O)c2ccc(CS(C)(=O)=O)cc2N2CCC3(CC2)CC3)nc(N2CCOCC2)c1 [Example 4-16, N-(4-Methyl-6-morpholinopyridin-2-yl)-4-((methylsulfonyl)methyl)-2-(6-azaspiro[2.5]octan-6-yl)benzamide] | 145
Cc1cc(NC(=O)c2ccc(NS(=O)(=O)C3(C)CC3)cc2N2CCC3(CC2)CC3)nc(C(C)(C)O)c1 [Example 4-17, N-(6-(2-Hydroxypropan-2-yl)-4-methylpyridin-2-yl)-4-((1-methylcyclopropane)-1-sulfonamido)-2-(6-azaspiro[2.5]octan-6-yl)benzamide] | 163
Cc1cc(NC(=O)c2ccc(S(=O)(=O)NC3(C)COC3)cc2N2CCC3(CC2)CC3)nc(C(C)(C)O)c1 [Example 4-18, N-(6-(2-Hydroxypropan-2-yl)-4-methylpyridin-2-yl)-4-(N-(3-methyloxetan-3-yl)sulfamoyl)-2-(6-azaspiro[2.5]octan-6-yl)benzamide] | 89
O=C(Nc1cccc(OCCC(F)(F)F)n1)c1ccc(NS(=O)(=O)CCO)cc1N1CCC2(CC1)CC2 [Example 5, 4-((2-Hydroxyethyl)sulfonamido)-2-(6-azaspiro[2.5]octan-6-yl)-N-(6-(3,3,3-trifluoropropoxy)pyridin-2-yl)benzamide] | 25
Cc1cc(NC(=O)c2ccc(NS(=O)(=O)CCO)cc2N2CCC3(CC2)CC3)nc(N2CCC(F)(F)CC2)c1 [Example 6, N-(6-(4,4-Difluoropiperidin-1-yl)-4-methylpyridin-2-yl)-4-((2-hydroxyethyl)sulfonamido)-2-(6-azaspiro[2.5]octan-6-yl)benzamide] | 47
C[C@@H]1CN(c2cccc(NC(=O)c3ccc(NS(=O)(=O)CCO)cc3N3CCC4(CC3)CC4)n2)CCO1 [Example 7-12, (R)-4-((2-Hydroxyethyl)sulfonamido)-N-(6-(2-methylmorpholino)pyridin-2-yl)-2-(6-azaspiro[2.5]octan-6-yl)benzamide] | 30
C[C@H]1CN(c2cccc(NC(=O)c3ccc(NS(=O)(=O)CCO)cc3N3CCC4(CC3)CC4)n2)CCO1 [Example 7-13, (S)-4-((2-Hydroxyethyl)sulfonamido)-N-(6-(2-methylmorpholino)pyridin-2-yl)-2-(6-azaspiro[2.5]octan-6-yl)benzamide] | 46

Now from value to compound:

IC50 [nM] | SMILES
45 | Cc1cc(NC(=O)c2ccc(NS(=O)(=O)CCO)cc2N2CCC3(CC2)CC3)nc(C2CC(F)(F)C2)c1 [Example 7-1, N-(6-(3,3-Difluorocyclobutyl)-4-methylpyridin-2-yl)-4-((2-hydroxyethyl)sulfonamido)-2-(6-azaspiro[2.5]octan-6-yl)benzamide]
39 | C[C@@H]1CN(c2cccc(NC(=O)c3ccc(NS(C)(=O)=O)cc3N3CCC4(CC3)CC4)n2)CCO1 [Example 7-2, (R)-N-(6-(2-Methylmorpholino)pyridin-2-yl)-4-(methylsulfonamido)-2-(6-azaspiro[2.5]octan-6-yl)benzamide]
76 | C[C@@H]1CN(c2cccc(NC(=O)c3ccc(N4CCCS4(=O)=O)cc3N3CCC4(CC3)CC4)n2)CCO1 [Example 7-3, (R)-4-(1,1-Dioxidoisothiazolidin-2-yl)-N-(6-(2-methylmorpholino)pyridin-2-yl)-2-(6-azaspiro[2.5]octan-6-yl)benzamide]
287 | C[C@@H]1CN(c2cccc(NC(=O)c3ccc(N4CCNS4(=O)=O)cc3N3CCC4(CC3)CC4)n2)CCO1 [Example 7-4, (R)-4-(1,1-Dioxido-1,2,5-thiadiazolidin-2-yl)-N-(6-(2-methylmorpholino)pyridin-2-yl)-2-(6-azaspiro[2.5]octan-6-yl)benzamide]
55 | C[C@@H]1CN(c2cccc(NC(=O)c3ccc(NS(=O)(=O)N(C)C)cc3N3CCC4(CC3)CC4)n2)CCO1 [Example 7-5, (R)-4-((N,N-Dimethylsulfamoyl)amino)-N-(6-(2-methylmorpholino)pyridin-2-yl)-2-(6-azaspiro[2.5]octan-6-yl)benzamide]
98 | C[C@@H]1CN(c2cccc(NC(=O)c3ccc(N4CCS4(=O)=O)cc3N3CCC4(CC3)CC4)n2)CCO1 [Example 7-6, (R)-4-(1,1-Dioxido-1,2-thiazetidin-2-yl)-N-(6-(2-methylmorpholino)pyridin-2-yl)-2-(6-azaspiro[2.5]octan-6-yl)benzamide]
49 | C[C@@H]1CN(c2cccc(NC(=O)c3ccc(NS(=O)(=O)C(F)F)cc3N3CCC4(CC3)CC4)n2)CCO1 [Example 7-7, (R)-4-((Difluoromethyl)sulfonamido)-N-(6-(2-methylmorpholino)pyridin-2-yl)-2-(6-azaspiro[2.5]octan-6-yl)benzamide]
72 | CCS(=O)(=O)Nc1ccc(C(=O)Nc2cc(C)cc(N3CCO[C@H](C)C3)n2)c(N2CCC3(CC2)CC3)c1 [Example 7-8, (R)-4-(Ethylsulfonamido)-N-(4-methyl-6-(2-methylmorpholino)pyridin-2-yl)-2-(6-azaspiro[2.5]octan-6-yl)benzamide]
62 | C[C@@H]1CN(c2cccc(NC(=O)c3ccc(NS(=O)(=O)C4CCC4)cc3N3CCC4(CC3)CC4)n2)CCO1 [Example 7-9, (R)-4-(Cyclobutanesulfonamido)-N-(6-(2-methylmorpholino)pyridin-2-yl)-2-(6-azaspiro[2.5]octan-6-yl)benzamide]
63 | C[C@@H]1CN(c2cccc(NC(=O)c3ccc(NS(=O)(=O)C4COC4)cc3N3CCC4(CC3)CC4)n2)CCO1 [Example 7-10, (R)-N-(6-(2-Methylmorpholino)pyridin-2-yl)-4-(oxetane-3-sulfonamido)-2-(6-azaspiro[2.5]octan-6-yl)benzamide]
81 | Cc1cc(NC(=O)c2ccc(NS(=O)(=O)C3COC3)cc2N2CCC3(CC2)CC3)nc(N2CCC(F)(F)CC2)c1 [Example 7-11, N-(6-(4,4-Difluoropiperidin-1-yl)-4-methylpyridin-2-yl)-4-(oxetane-3-sulfonamido)-2-(6-azaspiro[2.5]octan-6-yl)benzamide]
343 | C[C@@H]1CN(c2cccc(NC(=O)c3ccc(NS(=O)(=O)CCC(F)(F)F)cc3N3CCC4(CC3)CC4)n2)CCO1 [Example 7-14, (R)-N-(6-(2-Methylmorpholino)pyridin-2-yl)-2-(6-azaspiro[2.5]octan-6-yl)-4-((3,3,3-trifluoropropyl)sulfonamido)benzamide]
